Assays:
Caco-2 [1] = experiment: drug sensitivity score (DSS) for viability; higher = more toxic; extreme values may be limits of the assay; details: 72 h
HepG2 [2] = experiment: as above; details: 72 h
Calu-3 [3] = experiment: as above; details: 72 h
Vero E6 [4] = experiment: as above; details: 72 h
U2OS [5] = experiment: as above; details: 72 h
Caco-2 [6] = experiment: relative viability EC50 (midpoint between 100% and the lowest measured viability); higher = less toxic; details: 72 h
HepG2 [7] = experiment: as above; details: 72 h
Calu-3 [8] = experiment: as above; details: 72 h
Vero E6 [9] = experiment: as above; details: 72 h
U2OS [10] = experiment: as above; details: 72 h
Caco-2 [11] = experiment: cell viability relative to DMSO; higher = less toxic; details: 72 h
HepG2 [12] = experiment: as above; details: 72 h
Calu-3 [13] = experiment: as above; details: 72 h
Vero E6 [14] = experiment: as above; details: 72 h
U2OS [15] = experiment: as above; details: 72 h
[16] = tested on: A549-ACE2 infected with SARS-CoV-2; experiment: cell count relative to DMSO; higher = less toxic; details: 24 h
A549-ACE2 = experiment: drug-induced phospholipidosis relative to tamoxifen; higher = more phospholipidosis; details: 0.3 µM; 24 h
[17] = tested on: A549-ACE2 infected with SARS-CoV-2; experiment: SARS-CoV-2 infection rate relative to DMSO; higher = more infection; details: 24 h
[18] = tested on: A549-ACE2 infected with SARS-CoV-2; experiment: morphology score (similarity to uninfected cells); higher = more like uninfected cells; details: 24 h

CC(=O)N[C@@H](Cc1ccc(O)cc1)C(=O)O [N-acetyl-tyrosine]
Details	drug sensitivity score	relative viability EC50 [µM]
Caco-2 [1]	0	–
Caco-2 [6]	–	> 10
Calu-3 [3]	0	–
Calu-3 [8]	–	> 10
HepG2 [2]	0	–
HepG2 [7]	–	> 10
U2OS [5]	0	–
U2OS [10]	–	> 10
Vero E6 [4]	0	–
Vero E6 [9]	–	> 10

cell viability [%]
Details	Caco-2 [11]	Calu-3 [13]	HepG2 [12]	U2OS [15]	Vero E6 [14]
1 nM	92.7	105	93.9	95.3	98.6
10 nM	92.8	107	88.5	101	93.4
100 nM	91	108	93.8	96.6	94.3
1000 nM	95.6	106	97.7	101	95
10000 nM	102	94.6	98.2	107	101

CCCCC(CC)CCC(CC(C)C)OS(=O)(=O)O (stereo not drawn) [sodium-tetradecyl-sulfate]
Details	drug sensitivity score	relative viability EC50 [µM]
Caco-2 [1]	0	–
Caco-2 [6]	–	> 10
Calu-3 [3]	0	–
Calu-3 [8]	–	> 10
HepG2 [2]	0	–
HepG2 [7]	–	> 10
U2OS [5]	0	–
U2OS [10]	–	> 10
Vero E6 [4]	0	–
Vero E6 [9]	–	> 10

cell viability [%]
Details	Caco-2 [11]	Calu-3 [13]	HepG2 [12]	U2OS [15]	Vero E6 [14]
1 nM	100	98.8	93.1	103	101
10 nM	83	91.9	96.5	96	96.1
100 nM	95.5	103	112	98.3	99.7
1000 nM	87.6	102	86.2	104	91
10000 nM	104	97.5	98.6	99.5	101

Cc1ccc(-c2ncc(Cl)cc2-c2ccc(S(C)(=O)=O)cc2)cn1 [etoricoxib]
Details	drug sensitivity score	relative viability EC50 [µM]
Caco-2 [1]	0	–
Caco-2 [6]	–	> 10
Calu-3 [3]	0	–
Calu-3 [8]	–	> 10
HepG2 [2]	0	–
HepG2 [7]	–	> 10
U2OS [5]	0	–
U2OS [10]	–	> 10
Vero E6 [4]	0	–
Vero E6 [9]	–	> 10

cell viability [%]
Details	Caco-2 [11]	Calu-3 [13]	HepG2 [12]	U2OS [15]	Vero E6 [14]
1 nM	95.3	94.7	101	98.1	96.4
10 nM	108	99	90.5	103	101
100 nM	92.5	90	99.5	97.2	96.5
1000 nM	99.9	104	104	98.5	99.2
10000 nM	104	101	98.6	94.2	94

CC(C)C[C@H](NC(=O)[C@H](CCc1ccccc1)NC(=O)CN1CCOCC1)C(=O)N[C@@H](Cc1ccccc1)C(=O)N[C@@H](CC(C)C)C(=O)[C@@]1(C)CO1 [carfilzomib]
Details	SARS-CoV-2 infection rate, [17] [%]	cell count, [16] [%]	cell viability, Caco-2 [11] [%]	cell viability, Calu-3 [13] [%]	cell viability, HepG2 [12] [%]	cell viability, U2OS [15] [%]	cell viability, Vero E6 [14] [%]	morphology score, [18]
1 nM	–	–	91.9	104	94.6	96	100	–
10 nM	–	–	50.8	91.2	68.8	76.7	97.6	–
0.1 µM	51	69	–	–	–	–	–	0.25
100 nM	–	–	8.6	5.8	9	0.4	55.4	–
0.3 µM	24	49	–	–	–	–	–	0.29
1 µM	22	34	–	–	–	–	–	0.25
1000 nM	–	–	4.4	4.3	-0.4	-0.5	5.3	–
3 µM	20	26	–	–	–	–	–	0.18
10000 nM	–	–	6	1.7	-0.3	-0.3	2.3	–

Details	drug sensitivity score	drug-induced phospholipidosis [%]	relative viability EC50 [µM]
A549-ACE2	–	-37.6	–
Caco-2 [1]	34.7	–	–
Caco-2 [6]	–	–	0.0093
Calu-3 [3]	30.9	–	–
Calu-3 [8]	–	–	0.0267
HepG2 [2]	32.8	–	–
HepG2 [7]	–	–	0.018
U2OS [5]	34.1	–	–
U2OS [10]	–	–	0.0161
Vero E6 [4]	22.6	–	–
Vero E6 [9]	–	–	0.112

Cc1ccc(-c2csc3ncnc(SCCC(=O)O)c23)cc1 [TTP-22]
Details	drug sensitivity score	relative viability EC50 [µM]
Caco-2 [1]	0	–
Caco-2 [6]	–	> 10
Calu-3 [3]	0	–
Calu-3 [8]	–	> 10
HepG2 [2]	0	–
HepG2 [7]	–	> 10
U2OS [5]	0	–
U2OS [10]	–	> 10
Vero E6 [4]	0	–
Vero E6 [9]	–	> 10

cell viability [%]
Details	Caco-2 [11]	Calu-3 [13]	HepG2 [12]	U2OS [15]	Vero E6 [14]
1 nM	103	101	103	97.3	97.1
10 nM	96.5	87.5	92.3	102	94
100 nM	97.3	93.4	95.6	99	102
1000 nM	95	99.4	100	99	101
10000 nM	97.4	96.3	108	104	102

CCC(c1ccccc1)c1c(O)c2ccccc2oc1=O (stereo not drawn) [phenprocoumon]
Details	drug sensitivity score	relative viability EC50 [µM]
Caco-2 [1]	0	–
Caco-2 [6]	–	> 10
Calu-3 [3]	0	–
Calu-3 [8]	–	> 10
HepG2 [2]	0	–
HepG2 [7]	–	> 10
U2OS [5]	0	–
U2OS [10]	–	> 10
Vero E6 [4]	0	–
Vero E6 [9]	–	> 10

cell viability [%]
Details	Caco-2 [11]	Calu-3 [13]	HepG2 [12]	U2OS [15]	Vero E6 [14]
1 nM	91.4	102	90.2	96.8	100
10 nM	97.6	100	107	92.5	108
100 nM	104	102	87.5	101	97.3
1000 nM	92.2	93.6	99.7	99.8	102
10000 nM	104	94.8	108	104	102

Oc1ccc2[nH]cc(C3=CCNCC3)c2n1
Details	drug sensitivity score	relative viability EC50 [µM]
Caco-2 [1]	0	–
Caco-2 [6]	–	> 10
Calu-3 [3]	0	–
Calu-3 [8]	–	> 10
HepG2 [2]	0	–
HepG2 [7]	–	> 10
U2OS [5]	0	–
U2OS [10]	–	> 10
Vero E6 [4]	0	–
Vero E6 [9]	–	> 10

cell viability [%]
Details	Caco-2 [11]	Calu-3 [13]	HepG2 [12]	U2OS [15]	Vero E6 [14]
1 nM	79.9	100	107	94.8	105
10 nM	95.6	92.6	106	100	91.2
100 nM	97	105	97.6	97.1	99.4
1000 nM	98.1	104	89.1	106	97
10000 nM	100	102	100	105	102

Reference: the supplement of paper PMC13380429
